Assay results reported in ChEMBL document CHEMBL5390305, “Discovery of Ligands for TRIM58, a Novel Tissue-Selective E3 Ligase” (ACS Med Chem Lett, 2023).
In brackets after ≈: the same amount, converted by molar mass.

Columns and labels:
[1] = target: T1, E3 ubiquitin-protein ligase TRIM58 (Homo sapiens, UniProt Q8NG06); assay: Displacement of Ac-DKSDLKAELERKK-C(BODIPY-FL-M)-RLAQIREEKKRKEE-NH2 peptide probe from TRIM58 (279 to 466 residue) (unknown origin) preincubated for 30 mins followed by probe addition by fluorescence polarization method
T1 sequence (Q8NG06 whole entry): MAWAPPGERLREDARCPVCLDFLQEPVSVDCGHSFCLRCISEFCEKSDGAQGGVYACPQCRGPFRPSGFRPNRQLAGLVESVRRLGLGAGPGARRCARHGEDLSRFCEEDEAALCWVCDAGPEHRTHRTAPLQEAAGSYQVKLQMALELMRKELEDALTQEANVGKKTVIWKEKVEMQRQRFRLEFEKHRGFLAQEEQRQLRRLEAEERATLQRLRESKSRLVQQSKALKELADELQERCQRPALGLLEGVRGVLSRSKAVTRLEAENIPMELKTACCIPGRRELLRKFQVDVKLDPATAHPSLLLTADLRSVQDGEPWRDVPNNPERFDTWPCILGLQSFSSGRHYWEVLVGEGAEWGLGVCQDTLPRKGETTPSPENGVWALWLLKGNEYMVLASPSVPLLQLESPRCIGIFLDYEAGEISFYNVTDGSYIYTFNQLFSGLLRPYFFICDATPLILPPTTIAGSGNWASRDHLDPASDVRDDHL

[2] = Solubility of the compound at pH 6.8 by high-throughput equilibrium solubility assay; type: physicochemical; conditions: buffer
[3] = Apparent permeability across apical to basolateral side in low efflux MDCK cells; type: ADME, cell-based, Canis lupus familiaris; conditions: dog
[4] = Lipophilicity, log D of the compound in octanol/buffer system at pH 7.4 by shake-flask based LC/MSMS analysis; type: physicochemical
[5] = target: T1, E3 ubiquitin-protein ligase TRIM58; assay: Binding affinity against N-terminal 6His-tagged TRIM58 (251 to 466 residue) (unknown origin) expressed in Escherichia coli BL21 (DE3) by SPR assay

Row | SMILES | EC50 [1] | solubility thermodynamic [2] | Papp A→B [3] | logD [4] | Kd [5]
1 | c1ccc2cc(-c3nn[nH]n3)c(NCC3CCNCC3)cc2c1 | > 100 µM |  |  |  | 
2 | CNc1nc(NCC2CCNCC2)c2cc(-c3ccccc3)ccc2n1 | 12 µM | 80 µM (≈ 27.8 µg/mL) | 16 nm/s |  | 
3 | CNc1nc(NC)c2cc(-c3ccccc3)ccc2n1 | 75 µM | 100 µM (≈ 26.4 µg/mL) |  | 1.7 | 
4 | CNCCCNc1nc(NCC2CCNCC2)c2cc(-c3ccccc3)ccc2n1 | > 100 µM | > 750 µM | 6 nm/s | 1.2 | 
5 | CN(C)CCCNc1nc(NCC2CCNCC2)c2cc(-c3ccccc3)ccc2n1 | 5.3 µM | > 1000 µM |  | < -1 | 24 µM
6 | c1ccc(-c2ccc3nc(NCC4CC4)nc(NCC4CCNCC4)c3c2)cc1 | 8.6 µM | 20 µM (≈ 7.75 µg/mL) | 35 nm/s | 1.1 | 
7 | CNc1nc(NCC2CCNCC2)c2cc(C3CCCCC3)ccc2n1 | 6.6 µM | > 750 µM | 11 nm/s | 0.5 | 
8 | CN(C)CCCNc1nc(NCCc2ccccc2)c2cc(-c3ccccc3)ccc2n1 | 12.7 µM | 40 µM (≈ 17 µg/mL) | 240 nm/s | 3.3 | 
9 | CNc1nc(NCC2CCNCC2)c2ccccc2n1 | > 100 µM | > 750 µM | 16 nm/s | -0.8 | 
10 | CCCCCCNc1nc(NCCCN(C)C)nc2ccc(-c3ccccc3)cc12 | 7.4 µM | 60 µM (≈ 24.3 µg/mL) | 190 nm/s | 4 | 
11 | CNc1nc(OCC2CCNCC2)c2cc(-c3ccccc3)ccc2n1 | 74 µM | > 750 µM | 290 nm/s | -0.5 | 
